The text below walks through data of ChEMBL document CHEMBL1201862, “PubChem BioAssay data set” (2004).

The IC50 is the concentration that gives 50% inhibition. The term AC50 denotes the concentration giving half of the maximal activity seen. What is called EC50 is the concentration at which the effect is half-maximal.

In data set [1] the test system is HEK293. The experiment in a line: cells. Format: functional, cell-based. The conditions noted are these: Homo sapiens.
A short description of data set [2]: reduction of Shn3 3'UTR-driven luciferase in osteoblasts – cell-based, Clone20 osteoblasts, firefly luciferase, cherry-picked, dose response (AID 624132).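 Further: firefly luciferase luminescence from reporter carrying the Shn3 3'UTR in osteoblasts.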 Type of data set: functional.
For data set [3], the system named is HEK293. The data set is described as follows: cells. As to conditions: Homo sapiens.
A short description of data set [4]: HEK-293T viability loss after treatment – luminescence, T-cell screen hits, cytotoxicity control for TCR NF-kB inhibitor project, dose response (AID 489026).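 Further: cells exposed to compound about 14 hours before the viability readout.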 Format: functional, cell-based.
Data set [5] can be described thus: loss of viability in HepG2 cells – cell-based, CellTiter-Glo, cherry-picked, cytotoxicity control for Shn3 inhibitor project, dose response (AID 624134). Format: functional.
The target of data set [6] is T1, Nucleotide-binding oligomerization domain-containing protein 1 (Homo sapiens, UniProt Q9Y239).
T1 sequence (Q9Y239 whole entry): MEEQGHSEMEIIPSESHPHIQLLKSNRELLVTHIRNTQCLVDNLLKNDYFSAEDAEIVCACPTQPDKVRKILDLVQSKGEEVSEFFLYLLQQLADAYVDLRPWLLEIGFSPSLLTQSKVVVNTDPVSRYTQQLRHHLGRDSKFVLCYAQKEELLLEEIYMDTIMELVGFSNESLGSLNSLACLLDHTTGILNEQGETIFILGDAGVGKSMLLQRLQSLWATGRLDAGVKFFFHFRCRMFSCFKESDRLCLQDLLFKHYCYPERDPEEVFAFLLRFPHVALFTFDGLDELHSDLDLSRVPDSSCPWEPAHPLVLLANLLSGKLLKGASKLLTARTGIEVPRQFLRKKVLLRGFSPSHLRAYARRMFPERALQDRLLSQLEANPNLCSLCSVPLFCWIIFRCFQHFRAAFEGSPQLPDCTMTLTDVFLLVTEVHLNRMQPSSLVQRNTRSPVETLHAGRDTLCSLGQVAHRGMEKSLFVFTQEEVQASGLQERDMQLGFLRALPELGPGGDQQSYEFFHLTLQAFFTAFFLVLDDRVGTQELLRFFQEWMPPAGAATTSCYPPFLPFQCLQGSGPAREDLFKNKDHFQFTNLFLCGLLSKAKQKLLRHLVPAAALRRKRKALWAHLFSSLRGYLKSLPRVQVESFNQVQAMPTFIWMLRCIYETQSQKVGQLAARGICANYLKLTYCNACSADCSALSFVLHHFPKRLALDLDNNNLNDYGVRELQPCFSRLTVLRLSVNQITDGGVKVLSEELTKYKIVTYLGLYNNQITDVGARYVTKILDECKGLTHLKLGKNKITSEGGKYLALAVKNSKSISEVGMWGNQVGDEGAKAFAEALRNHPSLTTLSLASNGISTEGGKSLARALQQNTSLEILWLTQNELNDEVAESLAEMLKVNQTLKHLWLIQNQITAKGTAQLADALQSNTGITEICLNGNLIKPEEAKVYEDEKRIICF
The data set is described as follows: blockers of NOD1 pathway activity – revised, SAR follow-up (AID 2333). Format: functional.

The subject of the next data set is INS1. The data set is described as follows: INS-1E survival protection against cytokine death – cell-based, luminescence, retest, dose response (AID 449756).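 Further: cell death triggered by IL-1 beta plus TNF-alpha plus IFN-gamma mixture; protective hits raise ATP signal compared with cytokine alone wells.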 Type of data set: functional. As to conditions: Rattus norvegicus.
The test system of data set [7] is HEK293. The experiment in a line: inhibition of NOD1-driven NF-kB reporter – cell-based, luminescence, uHTS, primary screen (AID 1578). Type of data set: functional. As to conditions: Homo sapiens.
Data set [8] concerns HEK293. The experiment in a line: cells. Type of data set: functional, cell-based. As to conditions: Homo sapiens. The source holds these as a separate data set.
For data set [9], the system named is HEK293. The data set is described as follows: NOD2 signaling inhibitors in MDP-stimulated cells, cell-based, uHTS, luminescence (AID 2001). Type of data set: functional. As to conditions: Homo sapiens.
Data set [10] can be described thus: non-specific 3'UTR reporter inhibition in Clone20-Shn3RL – cell-based, Renilla luciferase, cherry-picked, counter-screen for Shn3 inhibitor project, dose response (AID 624133). Format: functional. A general note: Counterscreens check selectivity or assay interference.
The next data set addresses Tumor necrosis factor (Homo sapiens, UniProt P01375). The data set is described as follows: analog potency on TNFa NF-kB signaling – cell-based, revised, SAR follow-up (AID 2337). Type of data set: functional.
A further data set has as its target Cytochrome P450 3A4 (Homo sapiens, UniProt P08684).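 Further: CYP3A4 tested as one member of a cytochrome P450 panel screen.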
In the next data set the target is Cytochrome P450 2C9 (Homo sapiens, UniProt P11712).
Cytochrome P450 2C9, sequence (P11712 whole entry): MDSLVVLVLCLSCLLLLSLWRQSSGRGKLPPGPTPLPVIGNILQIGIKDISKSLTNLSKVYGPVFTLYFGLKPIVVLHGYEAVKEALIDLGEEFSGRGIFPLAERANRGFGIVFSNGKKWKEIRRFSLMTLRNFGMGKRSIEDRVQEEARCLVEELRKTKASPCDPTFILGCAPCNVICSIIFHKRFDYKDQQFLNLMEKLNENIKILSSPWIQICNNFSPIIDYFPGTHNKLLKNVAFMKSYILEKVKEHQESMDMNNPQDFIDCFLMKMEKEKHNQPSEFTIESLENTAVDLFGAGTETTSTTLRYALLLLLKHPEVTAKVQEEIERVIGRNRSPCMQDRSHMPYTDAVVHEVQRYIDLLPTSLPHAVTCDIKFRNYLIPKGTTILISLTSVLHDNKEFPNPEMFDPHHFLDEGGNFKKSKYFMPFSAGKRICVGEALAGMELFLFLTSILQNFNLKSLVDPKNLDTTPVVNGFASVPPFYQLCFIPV
In the next data set the target is Cytochrome P450 2C19 (Homo sapiens, UniProt P33261). The data set is described as follows: Cytochrome panel assay with activity outcomes. Panel member name: p450-cyp2c19 Compounds with AC50 equal or less than 10 uM are considered active. Type of data set: functional.
For a further data set, the target named is T2, Cytochrome P450 1A2 (Homo sapiens, UniProt P05177).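 Further: PubChem cytochrome P450 panel assay, CYP1A2 panel member.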
T2 sequence (P05177 whole entry): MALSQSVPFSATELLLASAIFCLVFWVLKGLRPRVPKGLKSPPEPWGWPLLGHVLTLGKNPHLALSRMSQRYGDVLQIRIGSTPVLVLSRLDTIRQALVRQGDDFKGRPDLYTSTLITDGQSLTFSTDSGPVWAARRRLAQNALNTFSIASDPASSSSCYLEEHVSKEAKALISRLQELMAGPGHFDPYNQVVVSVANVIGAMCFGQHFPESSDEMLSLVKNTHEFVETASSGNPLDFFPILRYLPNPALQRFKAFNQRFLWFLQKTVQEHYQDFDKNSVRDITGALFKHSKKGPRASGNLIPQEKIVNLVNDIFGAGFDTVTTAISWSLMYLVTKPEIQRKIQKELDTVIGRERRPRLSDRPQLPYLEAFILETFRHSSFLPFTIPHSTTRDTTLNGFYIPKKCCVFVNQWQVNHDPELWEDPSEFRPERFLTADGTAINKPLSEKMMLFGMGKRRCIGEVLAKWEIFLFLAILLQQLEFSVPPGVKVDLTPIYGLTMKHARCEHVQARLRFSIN

For data set [11], the target named is T3, Mannose-6-phosphate isomerase (Homo sapiens, UniProt P34949).
T3 sequence (P34949 whole entry): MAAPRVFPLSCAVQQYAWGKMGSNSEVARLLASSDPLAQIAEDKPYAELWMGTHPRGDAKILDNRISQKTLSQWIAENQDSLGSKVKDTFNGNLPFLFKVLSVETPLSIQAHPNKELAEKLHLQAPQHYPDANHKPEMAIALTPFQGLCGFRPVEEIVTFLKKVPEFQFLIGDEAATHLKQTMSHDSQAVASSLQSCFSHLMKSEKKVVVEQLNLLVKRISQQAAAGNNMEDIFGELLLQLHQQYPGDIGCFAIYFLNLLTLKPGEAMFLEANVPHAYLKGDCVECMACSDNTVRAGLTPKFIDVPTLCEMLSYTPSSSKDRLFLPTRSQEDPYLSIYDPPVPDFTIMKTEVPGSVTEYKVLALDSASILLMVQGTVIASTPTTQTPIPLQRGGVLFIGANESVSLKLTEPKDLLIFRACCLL
The experiment in a line: MPI enzyme activity inhibition – biochemical, fluorescence intensity, coupled assay, primary screen (AID 1209).

For data set [12], the target named is T3, Mannose-6-phosphate isomerase. The data set is described as follows: phosphomannose isomerase inhibition – biochemical, fluorescence intensity, confirmation (AID 1535).
A further data set has as its target Phosphomannomutase 2 (Homo sapiens, UniProt O15305). The experiment in a line: Counter screen SAR assay for PMM2 inhibitors via a fluorescence intensity assay. [Related pubchem assays (depositor defined):AID1545, AID1574].
For data set [13], the target named is DNA dC->dU-editing enzyme APOBEC-3G (Homo sapiens, UniProt Q9HC16). The experiment in a line: Dose Response confirmation of small molecule APOBEC3G DNA Deaminase Inhibitors via a fluorescence-based single-stranded DNA deaminase assay. [Related pubchem assays (depositor defined):AID493012, AID493028]. Format: functional.
Data set [14] has as its target DNA dC->dU-editing enzyme APOBEC-3A (Homo sapiens, UniProt P31941). The data set is described as follows: A3A deaminase inhibition for selectivity – biochemical, dose response (AID 504722). Format: functional.
The target in data set [15] is Peroxisome proliferator-activated receptor gamma/Nuclear receptor coactivator 2 (Homo sapiens, UniProt P37231). The experiment in a line: TR-FRET dose response biochemical High Throughput Screening assay for agonists of the steroid receptor coactivator 2 (SRC-2) recruitment by the peroxisome proliferator-activated receptor gamma (PPAR gamma): non-selective agonists. [Related pubchem assays: 1297, 1032 ]. Format: functional. Background: Time-resolved FRET reads energy transfer from a long-lived donor to a nearby acceptor.

The target in data set [16] is Induced myeloid leukemia cell differentiation protein Mcl-1 (Homo sapiens, UniProt Q07820). Type of data set: functional.
Data set [17] addresses Peroxisome proliferator-activated receptor gamma/Nuclear receptor coactivator 1 (Homo sapiens, UniProt P37231). The experiment in a line: TR-FRET dose response biochemical High Throughput Screening assay for agonists of the steroid receptor coactivator 1 (SRC-1) recruitment by the peroxisome proliferator-activated receptor gamma (PPAR gamma): non-selective agonists. [Related pubchem assays (depositor defined):AID1300, AID1808, AID504735, AID631]. Type of data set: protein assay.

The target in data set [18] is Peroxisome proliferator-activated receptor gamma/Nuclear receptor coactivator 3 (Homo sapiens, UniProt P37231). The data set is described as follows: TR-FRET dose response biochemical High Throughput Screening assay for agonists of the steroid receptor coactivator 3 (SRC-3) recruitment by the peroxisome proliferator-activated receptor gamma (PPAR gamma): non-selective agonists. [Related pubchem assays: 1301 (Confirmation screen.), 1048 (Primary screen.)]. Format: functional.
Peroxisome proliferator-activated receptor gamma/Nuclear receptor coactivator 3, sequence (P37231 whole entry): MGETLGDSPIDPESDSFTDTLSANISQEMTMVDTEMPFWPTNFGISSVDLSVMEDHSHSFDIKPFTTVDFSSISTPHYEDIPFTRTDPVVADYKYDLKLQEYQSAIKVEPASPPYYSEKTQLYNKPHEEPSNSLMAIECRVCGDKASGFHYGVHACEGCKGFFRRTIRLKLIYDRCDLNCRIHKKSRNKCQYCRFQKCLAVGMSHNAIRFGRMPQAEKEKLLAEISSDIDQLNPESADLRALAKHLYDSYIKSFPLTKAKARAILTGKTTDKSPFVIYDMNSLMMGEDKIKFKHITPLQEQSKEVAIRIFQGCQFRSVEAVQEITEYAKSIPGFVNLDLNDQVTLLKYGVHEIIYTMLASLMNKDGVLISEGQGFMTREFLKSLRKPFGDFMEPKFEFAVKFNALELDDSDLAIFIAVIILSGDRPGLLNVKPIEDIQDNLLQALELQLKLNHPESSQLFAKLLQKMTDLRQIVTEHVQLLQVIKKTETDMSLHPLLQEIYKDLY
Peroxisome proliferator-activated receptor gamma/Nuclear receptor coactivator 3, sequence (Q9Y6Q9 whole entry, further chain): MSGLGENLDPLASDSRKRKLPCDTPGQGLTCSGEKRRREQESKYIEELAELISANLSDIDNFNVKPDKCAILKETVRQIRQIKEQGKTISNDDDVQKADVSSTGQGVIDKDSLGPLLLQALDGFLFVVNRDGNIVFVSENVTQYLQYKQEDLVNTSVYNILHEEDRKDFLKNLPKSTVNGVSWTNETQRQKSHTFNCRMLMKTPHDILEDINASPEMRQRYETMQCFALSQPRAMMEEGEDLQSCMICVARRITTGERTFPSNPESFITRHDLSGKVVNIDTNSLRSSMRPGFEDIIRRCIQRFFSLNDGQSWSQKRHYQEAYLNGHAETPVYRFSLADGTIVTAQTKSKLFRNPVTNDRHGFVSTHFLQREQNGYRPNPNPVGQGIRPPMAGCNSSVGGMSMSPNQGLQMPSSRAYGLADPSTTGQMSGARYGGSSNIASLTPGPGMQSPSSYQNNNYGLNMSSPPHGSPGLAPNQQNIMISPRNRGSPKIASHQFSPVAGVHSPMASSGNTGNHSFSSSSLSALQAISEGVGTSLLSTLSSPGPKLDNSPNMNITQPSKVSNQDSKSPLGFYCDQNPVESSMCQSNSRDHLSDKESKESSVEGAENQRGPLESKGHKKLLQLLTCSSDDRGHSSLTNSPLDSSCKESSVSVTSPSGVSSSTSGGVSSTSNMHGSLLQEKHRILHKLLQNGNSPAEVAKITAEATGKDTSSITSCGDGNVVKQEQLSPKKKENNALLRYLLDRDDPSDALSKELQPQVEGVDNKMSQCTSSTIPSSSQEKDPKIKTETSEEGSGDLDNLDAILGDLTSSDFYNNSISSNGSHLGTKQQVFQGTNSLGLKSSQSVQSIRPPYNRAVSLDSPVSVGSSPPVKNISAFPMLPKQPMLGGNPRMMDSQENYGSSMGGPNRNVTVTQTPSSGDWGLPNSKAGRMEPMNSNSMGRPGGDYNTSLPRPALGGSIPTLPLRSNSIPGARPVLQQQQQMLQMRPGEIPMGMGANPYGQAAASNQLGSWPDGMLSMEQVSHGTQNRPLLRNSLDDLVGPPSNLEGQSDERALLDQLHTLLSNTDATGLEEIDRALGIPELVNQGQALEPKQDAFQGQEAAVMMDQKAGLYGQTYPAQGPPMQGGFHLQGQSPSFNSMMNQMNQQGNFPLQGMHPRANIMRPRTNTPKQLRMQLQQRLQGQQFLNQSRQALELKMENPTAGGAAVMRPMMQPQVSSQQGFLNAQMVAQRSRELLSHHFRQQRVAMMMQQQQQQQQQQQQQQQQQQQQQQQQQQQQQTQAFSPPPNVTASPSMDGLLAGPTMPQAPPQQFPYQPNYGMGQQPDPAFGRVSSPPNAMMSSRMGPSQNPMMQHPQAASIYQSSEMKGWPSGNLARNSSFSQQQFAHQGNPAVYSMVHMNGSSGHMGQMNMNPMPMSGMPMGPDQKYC

Where “and” joins values, the source holds several entries; their conditions need not be identical. Identical values can stand only once. Calls of active or inactive are those of the source. Some results are limits rather than exact numbers.

Tumor necrosis factor, sequence (P01375 whole entry): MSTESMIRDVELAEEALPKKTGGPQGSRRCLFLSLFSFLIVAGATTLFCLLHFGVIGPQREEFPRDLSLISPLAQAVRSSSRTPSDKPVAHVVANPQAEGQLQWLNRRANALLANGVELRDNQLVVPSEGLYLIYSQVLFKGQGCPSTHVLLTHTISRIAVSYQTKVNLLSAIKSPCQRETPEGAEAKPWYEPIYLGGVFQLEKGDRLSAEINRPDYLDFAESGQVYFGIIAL
Phosphomannomutase 2, sequence (O15305 whole entry): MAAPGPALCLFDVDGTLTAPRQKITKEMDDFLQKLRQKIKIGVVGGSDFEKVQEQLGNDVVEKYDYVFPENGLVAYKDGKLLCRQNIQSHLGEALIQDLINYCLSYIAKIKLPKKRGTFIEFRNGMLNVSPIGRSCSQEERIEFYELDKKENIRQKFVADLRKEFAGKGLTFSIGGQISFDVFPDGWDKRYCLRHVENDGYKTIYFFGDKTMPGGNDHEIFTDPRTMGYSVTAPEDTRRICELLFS
Peroxisome proliferator-activated receptor gamma/Nuclear receptor coactivator 1, sequence (P37231 whole entry): as the sequence (P37231 whole entry) above
Peroxisome proliferator-activated receptor gamma/Nuclear receptor coactivator 1, sequence (Q15788 whole entry, further chain): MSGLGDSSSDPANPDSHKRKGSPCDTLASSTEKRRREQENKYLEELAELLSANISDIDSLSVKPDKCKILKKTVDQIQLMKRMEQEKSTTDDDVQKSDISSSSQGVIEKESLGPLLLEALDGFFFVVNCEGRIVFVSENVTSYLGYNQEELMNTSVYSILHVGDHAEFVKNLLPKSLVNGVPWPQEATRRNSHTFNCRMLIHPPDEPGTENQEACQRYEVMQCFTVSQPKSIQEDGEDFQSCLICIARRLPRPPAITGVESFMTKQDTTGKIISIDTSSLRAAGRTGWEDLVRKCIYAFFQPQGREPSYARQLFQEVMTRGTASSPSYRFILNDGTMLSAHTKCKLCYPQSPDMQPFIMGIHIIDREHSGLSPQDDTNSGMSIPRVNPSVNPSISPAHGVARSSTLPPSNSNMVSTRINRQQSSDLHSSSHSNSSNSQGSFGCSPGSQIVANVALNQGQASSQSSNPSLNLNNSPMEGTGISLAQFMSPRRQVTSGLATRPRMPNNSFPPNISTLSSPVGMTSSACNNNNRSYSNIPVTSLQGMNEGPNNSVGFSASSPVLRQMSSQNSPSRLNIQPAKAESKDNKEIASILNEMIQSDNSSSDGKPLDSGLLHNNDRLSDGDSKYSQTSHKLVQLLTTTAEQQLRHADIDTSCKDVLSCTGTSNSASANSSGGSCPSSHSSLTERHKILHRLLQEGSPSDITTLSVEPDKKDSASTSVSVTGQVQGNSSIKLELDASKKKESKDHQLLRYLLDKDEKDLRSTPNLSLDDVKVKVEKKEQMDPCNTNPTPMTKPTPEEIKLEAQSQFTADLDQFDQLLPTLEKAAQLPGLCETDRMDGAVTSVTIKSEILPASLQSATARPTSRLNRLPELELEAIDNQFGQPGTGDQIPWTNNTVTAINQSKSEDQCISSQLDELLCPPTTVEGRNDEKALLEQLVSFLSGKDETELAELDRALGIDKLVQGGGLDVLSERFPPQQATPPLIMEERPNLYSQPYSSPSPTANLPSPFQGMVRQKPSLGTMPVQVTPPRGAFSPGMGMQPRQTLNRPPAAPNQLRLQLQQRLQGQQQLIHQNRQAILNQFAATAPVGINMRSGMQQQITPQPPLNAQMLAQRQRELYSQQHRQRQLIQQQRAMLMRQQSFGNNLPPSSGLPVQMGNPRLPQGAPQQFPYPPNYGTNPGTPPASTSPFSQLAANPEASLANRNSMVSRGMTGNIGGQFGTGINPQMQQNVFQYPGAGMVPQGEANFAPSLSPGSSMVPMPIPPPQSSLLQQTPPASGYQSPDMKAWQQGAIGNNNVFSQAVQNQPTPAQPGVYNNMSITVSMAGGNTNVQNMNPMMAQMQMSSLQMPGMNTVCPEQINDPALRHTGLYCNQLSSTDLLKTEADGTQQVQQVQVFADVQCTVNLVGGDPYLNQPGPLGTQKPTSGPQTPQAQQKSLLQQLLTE
DNA dC->dU-editing enzyme APOBEC-3A, sequence (P31941 whole entry): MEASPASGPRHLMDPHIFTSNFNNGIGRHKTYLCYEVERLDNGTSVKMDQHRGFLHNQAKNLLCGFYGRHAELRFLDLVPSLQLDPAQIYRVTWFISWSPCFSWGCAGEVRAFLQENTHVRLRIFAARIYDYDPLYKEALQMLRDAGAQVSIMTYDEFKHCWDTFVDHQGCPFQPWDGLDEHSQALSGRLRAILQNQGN

With `CCC(=O)N1c2ccc(S(=O)(=O)N3CCN(c4ccc([N+](=O)[O-])cc4)CC3)cc2CC1C` (stereo not drawn), the half-maximal inhibitory concentration (IC50) was 3.16 µM (active) in the data set with HEK293 [1]; > 20 µM (inactive) in the data set on HEK293 [3]; > 80 µM (inactive) in data set [4]; 2.24 µM (active) and 1.87 µM (active) in [6]; > 20 µM (inactive) in the data set on HEK293 [8]; 4.46 µM (active) in the data set with HEK293 [9]. Besides, the half-inhibitory concentration (IC50) at Tumor necrosis factor is 4.09 µM (active) and 4.88 µM (active). Also, the AC50 was 1.93 µM (active) in data set [2], 1.52 µM (active) in data set [5], 4.98 µM (active) in the data set on INS1 and 9.71 µM (active) in data set [10]. In addition, the EC50 in the data set with HEK293 [7] is 1.67 µM (active).
With `N#Cc1ccc(CN2CCCC3(CCN(C(=O)c4ccncc4)CC3)C2)cc1`, the concentration at half-maximal activity (AC50) is 1.58 µM (inconclusive) on Cytochrome P450 3A4, “inconclusive” on Cytochrome P450 2C9, “inconclusive” at Cytochrome P450 2C19 and “inconclusive” at Cytochrome P450 1A2.
On to `CCc1ccccc1NC1Nc2cc(C)nn2S1` (stereo not drawn), for which the figures for the IC50 (in data set [11]; in data set [12]; on Phosphomannomutase 2) were 10.9 µM (active), > 50 µM (inactive) and > 100 µM (inactive), respectively.
On to `CCSc1nnc(S)s1`, for which the IC50 in [13] is 7.81 µM (active); in data set [14], > 100 µM (inactive); in [11], 49.7 µM (active); in data set [12], 44.2 µM (active); on Phosphomannomutase 2, > 100 µM (inactive).
For the compound `CC(C)c1nc2sc3c(=O)[nH]c(=S)[nH]c3c2c2c1CCC2`, the concentration for a half-maximal effect (EC50) was > 79.4 µM (not active) in [15], > 79.4 µM (inactive) in data set [17] and > 79.4 µM (not active) in data set [18]. For the same compound, in data set [16], the half-inhibitory concentration (IC50) was < 0.4 µM (active).
